According to US20240376085A1 (Janssen Pharmaceutica NV, priority 2021, published 2024):

What was measured:
[1] = system: IL-17A-induced G-CSF production in human normal keratinocyte (NHK); test: NHK assay: IL-17A-induced G-CSF production in normal human keratinocytes; assay type: cell-based; conditions: 24 h, IL-17A 5 ng/mL, average if tested more than once
Outline: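 IC50 derives from G-CSF in supernatants, quantified by HTRF from a standard curve, with CellTiter-Glo viability compared to DMSO control. Before a 24 h, 37°C culture of normal human keratinocytes at 3000–4000 cells/well, compound dilutions were preincubated 1 h at rt with human IL-17A (5 ng/mL final), with 0.2% DMSO and 5% FBS.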

IL-17A : IL-17RA binding = target: T1, IL-17A : IL-17RA binding (Homo sapiens, UniProt Q16552, K93Q); test: IL-17A(FLAG-tagged):IL-17RA(His-tagged) binding disruption Eu-HTRF assay, Protocol 1; conditions: FLAG-IL-17A 2.5 nM at 2x final concentration; average if tested more than once
T1 construct: Name: IL-17A-Flag
T1 sequence (Q16552 with tags, fused parts or gaps K93Q): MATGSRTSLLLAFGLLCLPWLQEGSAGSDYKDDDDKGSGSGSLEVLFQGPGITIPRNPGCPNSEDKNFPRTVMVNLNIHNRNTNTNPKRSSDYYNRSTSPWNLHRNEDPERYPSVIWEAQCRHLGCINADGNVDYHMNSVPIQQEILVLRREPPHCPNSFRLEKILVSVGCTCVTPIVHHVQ
Outline: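 IC50 came from a one-site competition fit of the acceptor/donor (665/620 nm) HTRF ratio. His-tagged IL-17RA, Eu-anti-FLAG and D2-anti-His were added after a 1 h rt compound preincubation with FLAG-tagged IL-17A dimer in PBS/0.01% Triton X-100, followed by 2 h at rt before reading.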

Row | IC50 (IL-17A : IL-17RA binding) [µM] | Structure (SMILES) | IC50 ([1]; Homo sapiens, Keratinocyte) [µM] | IC50 [1] [µM]
1 | > 0.1 | CC(C)n1nccc1C(=O)N[C@H](c1nc2cc([C@@H](C)NC(=O)CC(C(F)(F)F)C(F)(F)F)ccc2[nH]1)C1CCC(F)(F)CC1 [Example 125, N—((S)-(4,4-Difluorocyclohexyl)(5-((R)-1-(4,4,4-trifluoro-3-(trifluoromethyl)butanamido)ethyl)-1H-benzo[d]imidazol-2-yl)methyl)-1-isopropyl-1H-pyrazole-5-carboxamide] | < 0.05 | –
2 | > 0.1 | C[C@@H](NC(=O)CCC(F)(F)F)c1ccc2[nH]c(C(CC(C)(C)C(F)(F)F)NC(=O)c3cnn(CCC(F)(F)F)n3)nc2c1 (single isomer, unassigned) [Example 219, N—((S*)-4,4,4-Trifluoro-3,3-dimethyl-1-(5-((R)-1-(4,4,4-trifluorobutanamido)ethyl)-1H-benzo[d]imidazol-2-yl)butyl)-2-(3,3,3-trifluoropropyl)-2H-1,2,3-triazole-4-carboxamide] | > 0.1 | –
3 | > 0.1 | C[C@@H](NC(=O)CCC(F)(F)F)c1ccc2[nH]c([C@@H](NC(=O)C3CC34CCC4)C3CCC(F)(F)CC3)nc2c1 (stereo partly drawn) [Example 111, N—((S)-(4,4-Difluorocyclohexyl)(5-((R)-1-(4,4,4-trifluorobutanamido)ethyl)-1H-benzo[d]imidazol-2-yl)methyl)spiro[2.3]hexane-1-carboxamide] | > 0.1 | –
4 | > 0.1 | Cc1nonc1C(=O)N[C@H](c1nc2cc([C@@H](NC(=O)CC3CC(F)(F)C3)C3CC3)ccc2[nH]1)C1CCC(F)(F)CC1 [Example 145, N—((S)-(5-((S)-Cyclopropyl(2-(3,3-difluorocyclobutyl)acetamido)methyl)-1H-benzo[d]imidazol-2-yl)(4,4-difluorocyclohexyl)methyl)-4-methyl-1,2,5-oxadiazole-3-carboxamide] | > 0.1 | –
5 | > 0.1 | CC(C)n1cncc1C(=O)N[C@H](c1nc2cc([C@@H](C)NC(=O)CCC(F)(F)F)ccc2[nH]1)C1CCC(F)(F)CC1 [Example 208, N—((S)-(4,4-Difluorocyclohexyl)(5-((R)-1-(4,4,4-trifluorobutanamido)ethyl)-1H-benzo[d]imidazol-2-yl)methyl)-1-isopropyl-1H-imidazole-5-carboxamide] | > 0.1 | –
6 | > 0.1 | CC(C)c1ncsc1C(=O)N[C@H](c1nc2cc([C@@H](C)NC(=O)CCC(F)(F)F)ccc2[nH]1)C1CCC(F)(F)CC1 [Example 203, N—((S)-(4,4-Difluorocyclohexyl)(5-((R)-1-(4,4,4-trifluorobutanamido)ethyl)-1H-benzo[d]imidazol-2-yl)methyl)-4-isopropylthiazole-5-carboxamide] | > 0.1 | –
7 | < 0.05 | [2H]C([2H])([2H])C([2H])([2H])n1nccc1C(=O)N[C@@H](COC(C)(C)C(F)(F)F)c1nc2ccc([C@H](NC(=O)CC3CC(F)(F)C3)C3CC3)cc2[nH]1 [Example 76, N—((R)-1-(6-((R)-Cyclopropyl(2-(3,3-difluorocyclobutyl)acetamido)methyl)-1H-benzo[d]imidazol-2-yl)-2-((1,1,1-trifluoro-2-methylpropan-2-yl)oxy)ethyl)-1-(ethyl-d5)-1H-pyrazole-5-carboxamide] | < 0.05 | –
8 | > 0.1 | C[C@@H](NC(=O)CCC(F)(F)F)c1ccc2nc([C@@H](NC(=O)c3cnn(CC4CCC4)n3)C3CCC(F)(F)CC3)[nH]c2c1 [Example 62, 2-(Cyclobutylmethyl)-N—((S)-(4,4-difluorocyclohexyl)(6-((R)-1-(4,4,4-trifluorobutanamido)ethyl)-1H-benzo[d]imidazol-2-yl)methyl)-2H-1,2,3-triazole-4-carboxamide] | > 0.1 | –
9 | > 0.1 | C[C@@H](NC(=O)CCC(F)(F)F)c1ccc2[nH]c([C@@H](NC(=O)c3cnnn3CCCC(F)(F)F)C3CCC(F)(F)CC3)nc2c1 [Example 20, N—[(S)-(4,4-Difluorocyclohexyl)-[6-[(1R)-1-(4,4,4-trifluorobutanoylamino)ethyl]-1H-benzimidazol-2-yl]methyl]-3-(4,4,4-trifluorobutyl)triazole-4-carboxamide] | 0.05 to 0.1 | –
10 | < 0.05 | C[C@H](OCC(NC(=O)c1nonc1C1CC1)c1nc2ccc([C@H](NC(=O)CC3CC(F)(F)C3)C3CC3)cc2[nH]1)C(F)(F)F (single isomer, unassigned) [Example 154, 4-Cyclopropyl-N—((R*)-1-(6-((R)-cyclopropyl(2-(3,3-difluorocyclobutyl)acetamido)methyl)-1H-benzo[d]imidazol-2-yl)-2-(((S)-1,1,1-trifluoropropan-2-yl)oxy)ethyl)-1,2,5-oxadiazole-3-carboxamide] | 0.05 to 0.1 | –

More lines, now with the values behind:

Row | Structure (SMILES) | IC50 (IL-17A : IL-17RA binding) [µM] | IC50 ([1]; Homo sapiens, Keratinocyte) [µM] | IC50 [1] [µM]
11 | C[C@@H](NC(=O)CCC(F)(F)F)c1ccc2[nH]c([C@@H](NC(=O)c3cnnn3CCOC(F)F)C3CCC(F)(F)CC3)nc2c1 [Example 34, N—[(S)-(4,4-Difluorocyclohexyl)-[6-[(1R)-1-(4,4,4-trifluorobutanoylamino)ethyl]-1H-benzimidazol-2-yl]methyl]-3-[2-(difluoromethoxy)ethyl]triazole-4-carboxamide] | > 0.1 | 0.05 to 0.1 | –
12 | C[C@@H](NC(=O)CCC(F)(F)F)c1ccc2[nH]c([C@@H](NC(=O)c3ncnn3CCC(F)F)C3CCC(F)(F)CC3)nc2c1 [Example 41, N—[(S)-(4,4-Difluorocyclohexyl)-[6-[(1R)-1-(4,4,4-trifluorobutanoylamino)ethyl]-1H-benzimidazol-2-yl]methyl]-2-(3,3-difluoropropyl)-1,2,4-triazole-3-carboxamide] | > 0.1 | > 0.1 | –
13 | C[C@@H](NC(=O)CCC(F)(F)F)c1ccc2[nH]c([C@@H](NC(=O)c3ncn(CC4CC4)n3)C3CCC(F)(F)CC3)nc2c1 [Example 29, 1-(Cyclopropylmethyl)-N—[(S)-(4,4-difluorocyclohexyl)-[6-[(1R)-1-(4,4,4-trifluorobutanoylamino)ethyl]-1H-benzimidazol-2-yl]methyl]-1,2,4-triazole-3-carboxamide] | > 0.1 | > 0.1 | –
14 | CC(C)n1nccc1C(=O)N[C@H](c1nc2ccc([C@H](NC(=O)CC3CC(F)(F)C3)C3CC3)cc2[nH]1)C1CCC(F)(F)CO1 (single isomer, unassigned) [Example 262, N—((R)-(6-((R)-Cyclopropyl(2-(3,3-difluorocyclobutyl)acetamido)methyl)-1H-benzo[d]imidazol-2-yl)((R*)-5,5-difluorotetrahydro-2H-pyran-2-yl)methyl)-1-isopropyl-1H-pyrazole-5-carboxamide] | > 0.1 | – | < 0.05
15 | Cc1c(C(=O)N[C@H](c2nc3ccc([C@@H](C)NC(=O)CCC(F)(F)F)cc3[nH]2)C2CCC(F)(F)CC2)cnn1CC(F)F [Example 28, N—[(S)-(4,4-Difluorocyclohexyl)-[6-[(1R)-1-(4,4,4-trifluorobutanoylamino)ethyl]-1H-benzimidazol-2-yl]methyl]-1-(2,2-difluoroethyl)-5-methyl-pyrazole-4-carboxamide] | > 0.1 | > 0.1 | –
16 | CC(C)(OC[C@H](NC(=O)c1nonc1OCC(F)(F)F)c1nc2cc([C@H](NC(=O)CC3CC(F)(F)C3)C3CC3)ccc2[nH]1)C(F)(F)F [Example 267, N—((R)-1-(5-((R)-Cyclopropyl(2-(3,3-difluorocyclobutyl)acetamido)methyl)-1H-benzo[d]imidazol-2-yl)-2-((1,1,1-trifluoro-2-methylpropan-2-yl)oxy)ethyl)-4-(2,2,2-trifluoroethoxy)-1,2,5-oxadiazole-3-carboxamide] | < 0.05 | < 0.05 | –
17 | C[C@@H](NC(=O)CCC(F)(F)F)c1ccc2nc([C@@H](NC(=O)c3cnnn3CC3CC(F)(F)C3)C3CCC(F)(F)CC3)[nH]c2c1 [Example 66, 1-((3,3-Difluorocyclobutyl)methyl)-N—((S)-(4,4-difluorocyclohexyl)(6-((R)-1-(4,4,4-trifluorobutanamido)ethyl)-1H-benzo[d]imidazol-2-yl)methyl)-1H-1,2,3-triazole-5-carboxamide] | > 0.1 | 0.05 to 0.1 | –
18 | C[C@@H](NC(=O)CCC(F)(F)F)c1ccc2[nH]c([C@@H](NC(=O)C3(C)CC3)C3CCC(F)(F)CC3)nc2c1 [Example 95, N—((S)-(4,4-Difluorocyclohexyl)(5-((R)-1-(4,4,4-trifluorobutanamido)ethyl)-1H-benzo[d]imidazol-2-yl)methyl)-1-methylcyclopropane-1-carboxamide] | > 0.1 | > 0.1 | –
19 | C[C@@H](NC(=O)CCC(F)(F)F)c1ccc2[nH]c([C@@H](NC(=O)c3csc(CCC(F)(F)F)n3)C3CCC(F)(F)CC3)nc2c1 [Example 224, N—((S)-(4,4-Difluorocyclohexyl)(5-((R)-1-(4,4,4-trifluorobutanamido)ethyl)-1H-benzo[d]imidazol-2-yl)methyl)-2-(3,3,3-trifluoropropyl)thiazole-4-carboxamide] | > 0.1 | > 0.1 | –
20 | Cc1nonc1C(=O)N[C@@H](C[C@H]1CCC(F)(F)C1)c1nc2ccc([C@H](NC(=O)CC3CC(F)(F)C3)C3CC3)cc2[nH]1 [Example 235, N—((S)-1-(6-((R)-Cyclopropyl(2-(3,3-difluorocyclobutyl)acetamido)methyl)-1H-benzo[d]imidazol-2-yl)-2-((R)-3,3-difluorocyclopentyl)ethyl)-4-methyl-1,2,5-oxadiazole-3-carboxamide] | > 0.1 | > 0.1 | –
